Values after ≈ are worked out from the molar mass of the structure shown.
Key:
Pr.vulgaris IAM-1025 = assay: Minimal inhibitory concentration (MIC) by agar dilution on heart infusion agar; type: cell-based; conditions: Proteus vulgaris, IAM1025, HI-agar, one loopful of overnight culture in Trypticase-soy broth (10 viable cells per ml), 37°C for 20 hours
Procedure: (§1) Now in order to show the utility of the object compounds (I), test data on anti-microbial activity of representative compounds of the present invention are shown below.
(§2) One loopful of an overnight culture of each test strain in Trypticase-soy broth (10 viable cells per ml,) was streaked on heart infusion agar (HI-agar) containing graded concentrations of antibiotics, and the minimal inhibitory concentration (MIC) was expressed in terms of µg/ml after incubation at 37°C for 20 hours.

Pr.mirabilis 140 = assay: as above; type: cell-based; conditions: Proteus mirabilis, HI-agar, one loopful of overnight culture in Trypticase-soy broth (10 viable cells per ml), 37°C for 20 hours
Procedure: as §1, §2

SMILES	MIC (Pr.vulgaris IAM-1025)	MIC (Pr.mirabilis 140)
CCO/N=C(\C(=O)NC1C(=O)N2C(C(=O)[O-])=C(C[n+]3cccn3C)CSC12)c1nsc(N)n1 (stereo not drawn) [(1)]	0.78 µg/mL (≈ 1.58 µM)	0.39 µg/mL (≈ 0.792 µM)
CCO/N=C(\C(=O)NC1C(=O)N2C(C(=O)[O-])=C(C[n+]3ccccn3)CSC12)c1nsc(N)n1 (stereo not drawn) [(2)]	0.39 µg/mL (≈ 0.795 µM)	0.39 µg/mL (≈ 0.795 µM)
CO/N=C(\C(=O)NC1C(=O)N2C(C(=O)[O-])=C(C[n+]3ccccn3)CSC12)c1nsc(N)n1 (stereo not drawn) [(3)]	6.25 µg/mL (≈ 13.1 µM)	0.39 µg/mL (≈ 0.818 µM)

Reference: patent EP0062321A2, “New cephem compounds, processes for their preparation, pharmaceutical compositions containing them and their starting compounds” (FUJISAWA PHARMACEUTICAL CO., LTD., priority 1981, dated 1982)
